Like-named read-outs stand apart in the source and are kept apart here. Where a SMILES comes first, the peptide text is derived from it. Bridges are numbered along the chain shown (N, C = ends).
How the values were obtained:
H. armigera = conditions: ref [61], cited from earlier work
Text: Table 2 Comparison of OAIP-1 with pyrethroid insecticides. | column: Oral LD50 (nmol/g)

Helicoverpa armigera = test: Assay of synergism of imidacloprid and sOAIP-1 in agar diet; assay type: in vivo; conditions: H. armigera fed 100 pmol of the single insecticide in agar diet, mean ±SEM of three replicates of 10
Experimental: (§1) For feeding assays, an agar-based insect diet was created based on literature information (Table S1). Instead of using a separate preparation as a vitamin supplement, the commercially available children's vitamin Pentavite (Bayer, Leverkusen, Germany) was added after the agar had cooled below 65°C. Mealworms were fed 100 µL of the agar diet, with or without 20 µL toxin (or water for untreated controls). For the choice test, the same size Petri dish was divided in half and 50 µL of either toxin-treated or untreated agar was pipetted onto each half and mortality was recorded after 48 h. Cotton bollworms (Helicoverpa armigera, Lepidoptera: Noctuidae) were fed 5 µL toxin (or water for untreated controls) in 20 µL of agar diet, and maintained in 12-well tissue culture dishes. For assays of synergism using 100 pmol imidacloprid (Sigma-Aldrich) and 100 pmol sOAIP-1, 20 µL of one toxin or 10 µL of each toxin was incorporated into the agar diet for H. armigera. After all the treated diet was consumed, untreated diet was supplied ad libitum.
In all experiments, the mortality of untreated insects was used to correct the data for mortality due to injection of toxin or incorporation in the diet. […]

[1] = test system: mealworms (larval Tenebrio molitor); test: Feeding assay, toxin in agar diet fed to mealworms; assay type: in vivo; conditions: corrected for control mortality, three replicates of 10
Experimental: Chicken feed was provided ad libitum for mealworm food. A Whatman filter paper saturated with distilled water was used to maintain humidity in all mealworm experiments except feeding assays, which used the synthetic orally active insecticidal peptide 1 (sOAIP-1) in the agar diet described below. The agar diet allowed a homogenous mixture of toxin and diet to be prepared so preferential feeding on untreated diet would not be possible. All insects were maintained at 24.5°C in the dark at ambient humidity in sterile Petri dishes.
as §1, with “For assays of synergism using 100 pmol imidacloprid (Sigma-Aldrich) and 100 pmol sOAIP-1, 20 µL of one toxin or 10 µL of each toxin was incorporated into the agar diet for H. armigera. After all the treated diet was consumed, untreated diet was supplied ad libitum.” left out

[2] = test system: mealworms (larval Tenebrio molitor); test: Injection of toxin into mealworms; assay type: in vivo; conditions: injection into metathoracic pleurite, corrected for control mortality, three replicates of 10
Experimental: Termites were fed a 20% α-cellulose matrix (Sigma-Aldrich, St. Louis, MO) mixed with water; the toxin was dissolved in water, and 20 µL was added to the cellulose matrix to a final concentration of 350 nmol/g, and then pipetted into Petri dishes. After the cellulose matrix had dried (to prevent termites from drowning in wet bait), nine worker termites and one soldier termite were added to each dish; each toxin dose was replicated three times. As a comparison, toxins were also injected into mealworms at a concentration of 350 nmol/g in three replicates of 10 insects.
Mealworms were purchased from Pisces Enterprises (Kenmore, QLD, Australia). Insects between 3rd and 4th instar (∼180 mg/individual) were used. For each mealworm, 2.6 µL of toxin diluted in ultrapure water was injected into the metathoracic pleurite. Injections were performed using a 29.5 gauge insulin syringe (B–D Ultra-Fine, Terumo Medical Corporation, Elkton, MD). Three replicates of 10 insects were used for each toxin concentration, and the same number of control insects were injected with ultrapure water and maintained under the same conditions.
Chicken feed was provided ad libitum for mealworm food. […] All insects were maintained at 24.5°C in the dark at ambient humidity in sterile Petri dishes. […]

[3] = In vitro stability in undiluted insect hemolymph; assay type: in vitro ADME, Helicoverpa armigera; conditions: undiluted H. armigera hemolymph, 30 µg peptide in 200 µL, ambient temperature (23°C), dark
Experimental: Fourth-instar H. armigera larvae were decapitated and the gut was removed using forceps. The carcasses were spun in a benchtop centrifuge (14,000 g for 10 min) to separate the hemolymph from exoskeleton. For each time point, 200 µL of undiluted hemolymph was mixed with 30 µg of sOAIP-1. The hemolymph/sOAIP-1 solution was maintained in the dark at room temperature, and immediately before RP-HPLC analysis the hemolymph/sOAIP-1 solution was again spun in a benchtop centrifuge (14,000 g for 10 min). After centrifugation, 30 µg of a control peptide, ω-HXTX-Hv1a, was added to aid quantification and the sample was filtered using a […] filter. The toxins were separated by RP-HPLC using a linear acetonitrile gradient (5–40% over 40 min), and the identity of each toxin was confirmed using mass spectrometry. The percentage of intact sOAIP-1 present at each time point was determined by comparing the area of the sOAIP-1 peak to that at zero time, both measured relative to the area of the ω-HXTX-Hv1a peak.

[4] = test system: mealworms (larval Tenebrio molitor); test: Feeding choice test, toxin-treated and untreated agar; assay type: in vivo
Experimental: as §1
In addition to toxicity assays, a choice test was conducted to determine whether sOAIP-1 is repellent. […] Conversely, if the toxin-treated agar was preferentially consumed, it might indicate that sOAIP-1 acts as an attractant.

[5] = pyrethroid-resistant strain BK99R9 (R)

Compound	Oral LD50 (H. armigera; [5])	Oral LD50 (H. armigera; susceptible strain BK77 (S))	mortality at 48 h (Helicoverpa armigera)	other results
Cc1c(COC(=O)[C@@H]2[C@H](/C=C(\Cl)C(F)(F)F)C2(C)C)cccc1-c1ccccc1 (racemic) [Bifenthrin]	20.6 nmol/g	1.1 nmol/g	–	–
CC1(C)[C@H](C(=O)O[C@H](C#N)c2cccc(Oc3ccccc3)c2)[C@@H]1C=C(Br)Br [Deltamethrin]	0.46 nmol/g	0.35 nmol/g	–	–
CCOc1ccc(C(C)(C)COCc2cccc(Oc3ccccc3)c2)cc1 [Etofenprox]	55.9 nmol/g	0.31 nmol/g	–	–
CC(C)C(C(=O)OC(C#N)c1cccc(Oc2ccccc2)c1)c1ccc(Cl)cc1 (centres unmarked) [Fenvalerate]	41.9 nmol/g	7.8 nmol/g	–	–
O=[N+]([O-])NC1=NCCN1Cc1ccc(Cl)nc1 [imidacloprid]	–	–	31±3%	–
CC[C@H](C)[C@@H]1NC(=O)[C@@H]2CSSC[C@H](NC(=O)[C@@H](N)CC(=O)O)C(=O)NCC(=O)N[C@@H](Cc3c[nH]cn3)C(=O)N[C@@H](CC(C)C)C(=O)N[C@@H](Cc3c[nH]cn3)C(=O)N[C@@H](CC(=O)O)C(=O)N3CCC[C@H]3C(=O)N[C@H]3CSSC[C@H](NC(=O)[C@H](CCC(N)=O)NC(=O)[C@H](CC(C)C)NC(=O)CNC1=O)C(=O)N[C@@H](CCCNC(=N)N)C(=O)N[C@@H](Cc1ccc(O)cc1)C(=O)NCC(=O)N[C@@H](CCCCN)C(=O)N[C@H](C(=O)N[C@@H](CC(C)C)C(=O)N[C@H](C(=O)N[C@@H](CCCNC(=N)N)C(=O)O)C(C)C)CSSC[C@H](NC(=O)[C@H]([C@@H](C)O)NC(=O)[C@H](CCCNC(=N)N)NC(=O)[C@H](Cc1c[nH]cn1)NC(=O)CNC(=O)[C@@H]1CCCN1C(=O)[C@H](CCCNC(=N)N)NC(=O)[C@H](CC(=O)O)NC(=O)[C@H](CC(N)=O)NC(=O)[C@@H]1CCCN1C3=O)C(=O)N2 [sOAIP-1] (H-DCGHLHDPCPNDRPGHRTCCIGLQCRYGKCLVR-OH; disulfide 2-20, 9-25, 19-30; N-terminus and C-terminus assumed)	–	–	4±3%	LD50, oral administration [1]: 170.5 ± 0.2 nmol/g; LD50, injected toxin [2]: 1.84 ± 0.8 nmol/g; remaining at 24 h ([3]; cerebrospinal or other body fluid, 24 h, RP-HPLC peak area relative to ω-HXTX-Hv1a, read-out: remained intact): ~40%; metabolised at 72 h ([3]; cerebrospinal or other body fluid, 72 h, RP-HPLC peak area relative to ω-HXTX-Hv1a, read-out: peptide degraded): 90%; remained intact ([3]; one-week incubation, RP-HPLC): none remained intact; mortality at 48 h in choice test ([4]; mealworms offered toxin-treated and untreated agar, 1 pmol toxin, three replicates of 10): no mortality; repellent or attractant effect ([4]; mealworms, choice test compared with non-choice test): neither a repellent that repels insects nor an attractant

Source: paper PMC3770646, “Isolation of an Orally Active Insecticidal Toxin from the Venom of an Australian Tarantula” (PLoS ONE, 2013)
